Experimental data published in ChEMBL document CHEMBL2401712, “Fused thiazolyl alkynes as potent mGlu5 receptor positive allosteric modulators” (Bioorg Med Chem Lett, 2013).

Tests used:
[1] = target: T1, Metabotropic glutamate receptor 5 (Homo sapiens, UniProt P41594); experiment: Positive allosteric modulation of human mGlu5 receptor expressed in HEK293 cells assessed as potentiation of L-glutamate-induced activity after 1 hr by FLIPR assay; type: cell-based
Target sequence in this assay (P41594 whole entry): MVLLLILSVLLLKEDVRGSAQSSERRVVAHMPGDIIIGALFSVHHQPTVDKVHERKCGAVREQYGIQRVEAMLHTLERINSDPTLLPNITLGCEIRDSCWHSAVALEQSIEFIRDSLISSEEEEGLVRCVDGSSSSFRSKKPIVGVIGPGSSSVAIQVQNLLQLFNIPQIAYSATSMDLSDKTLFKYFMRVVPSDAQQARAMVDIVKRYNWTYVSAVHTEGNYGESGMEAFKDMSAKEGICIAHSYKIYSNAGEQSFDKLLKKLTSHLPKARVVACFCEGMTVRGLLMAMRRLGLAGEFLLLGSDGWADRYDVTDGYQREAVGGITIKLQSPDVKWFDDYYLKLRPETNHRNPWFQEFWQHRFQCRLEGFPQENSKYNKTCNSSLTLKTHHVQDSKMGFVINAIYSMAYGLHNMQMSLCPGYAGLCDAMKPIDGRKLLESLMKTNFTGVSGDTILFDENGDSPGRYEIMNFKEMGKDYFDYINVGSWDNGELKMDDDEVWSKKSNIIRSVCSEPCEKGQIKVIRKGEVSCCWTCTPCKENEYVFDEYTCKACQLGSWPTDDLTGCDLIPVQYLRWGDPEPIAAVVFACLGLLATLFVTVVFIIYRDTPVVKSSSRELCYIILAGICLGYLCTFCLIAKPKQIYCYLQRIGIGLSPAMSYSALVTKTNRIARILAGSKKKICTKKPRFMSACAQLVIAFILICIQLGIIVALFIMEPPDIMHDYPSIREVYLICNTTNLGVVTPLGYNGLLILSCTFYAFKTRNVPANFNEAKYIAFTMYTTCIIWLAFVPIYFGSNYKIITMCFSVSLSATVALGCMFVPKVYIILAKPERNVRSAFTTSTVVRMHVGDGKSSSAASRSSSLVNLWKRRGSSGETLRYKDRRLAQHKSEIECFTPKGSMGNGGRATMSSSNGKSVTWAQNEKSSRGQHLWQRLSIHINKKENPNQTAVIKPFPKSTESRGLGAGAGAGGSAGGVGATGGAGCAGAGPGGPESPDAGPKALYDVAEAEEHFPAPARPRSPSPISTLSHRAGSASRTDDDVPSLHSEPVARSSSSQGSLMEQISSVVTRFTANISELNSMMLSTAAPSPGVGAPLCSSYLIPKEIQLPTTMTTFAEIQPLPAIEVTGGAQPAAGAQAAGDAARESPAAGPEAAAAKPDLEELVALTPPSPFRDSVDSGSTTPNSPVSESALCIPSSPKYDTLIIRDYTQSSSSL

CYP2D6 = CYP2D6 (Homo sapiens, UniProt P10635); experiment: Inhibition of CYP2D6 (unknown origin) at 5 uM relative to control; type: ADME
Chain of CYP2D6 (P10635 whole entry): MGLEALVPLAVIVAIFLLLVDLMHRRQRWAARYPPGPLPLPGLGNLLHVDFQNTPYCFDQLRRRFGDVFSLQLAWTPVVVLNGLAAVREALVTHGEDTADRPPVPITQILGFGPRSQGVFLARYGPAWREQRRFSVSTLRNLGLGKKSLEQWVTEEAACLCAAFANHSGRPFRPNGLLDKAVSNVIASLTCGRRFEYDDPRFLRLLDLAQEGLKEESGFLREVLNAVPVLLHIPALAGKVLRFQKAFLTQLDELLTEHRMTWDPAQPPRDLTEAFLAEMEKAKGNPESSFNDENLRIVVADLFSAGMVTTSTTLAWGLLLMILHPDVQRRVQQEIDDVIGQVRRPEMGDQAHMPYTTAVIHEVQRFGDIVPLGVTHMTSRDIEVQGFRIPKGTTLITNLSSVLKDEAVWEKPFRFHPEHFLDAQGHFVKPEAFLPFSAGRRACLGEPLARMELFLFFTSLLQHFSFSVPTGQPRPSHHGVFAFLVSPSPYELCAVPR

CYP3A4 = CYP3A4 (Homo sapiens, UniProt P08684); experiment: Inhibition of CYP3A4 (unknown origin) at 5 uM relative to control; type: ADME
Chain of CYP3A4 (P08684 whole entry): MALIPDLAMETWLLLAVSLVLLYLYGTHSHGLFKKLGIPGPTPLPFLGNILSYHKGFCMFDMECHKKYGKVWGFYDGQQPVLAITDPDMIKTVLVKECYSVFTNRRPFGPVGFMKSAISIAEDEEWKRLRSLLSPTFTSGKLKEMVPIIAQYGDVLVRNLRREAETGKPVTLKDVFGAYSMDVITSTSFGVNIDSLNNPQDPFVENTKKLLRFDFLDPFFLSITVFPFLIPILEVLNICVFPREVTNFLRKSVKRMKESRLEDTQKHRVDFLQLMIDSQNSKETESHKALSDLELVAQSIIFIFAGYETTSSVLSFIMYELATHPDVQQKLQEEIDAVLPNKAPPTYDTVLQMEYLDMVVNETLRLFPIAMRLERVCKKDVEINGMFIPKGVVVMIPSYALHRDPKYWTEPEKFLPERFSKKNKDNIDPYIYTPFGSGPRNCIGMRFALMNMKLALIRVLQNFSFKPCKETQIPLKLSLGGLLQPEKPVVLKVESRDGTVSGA

[2] = target: T1, Metabotropic glutamate receptor 5; experiment: Positive allosteric modulation of human mGlu5 receptor expressed in HEK293 cells assessed as potentiation of L-glutamate-induced activity after 1 hr by FLIPR assay relative to control; type: cell-based
Target sequence in this assay (P41594 21-1212 limits assumed): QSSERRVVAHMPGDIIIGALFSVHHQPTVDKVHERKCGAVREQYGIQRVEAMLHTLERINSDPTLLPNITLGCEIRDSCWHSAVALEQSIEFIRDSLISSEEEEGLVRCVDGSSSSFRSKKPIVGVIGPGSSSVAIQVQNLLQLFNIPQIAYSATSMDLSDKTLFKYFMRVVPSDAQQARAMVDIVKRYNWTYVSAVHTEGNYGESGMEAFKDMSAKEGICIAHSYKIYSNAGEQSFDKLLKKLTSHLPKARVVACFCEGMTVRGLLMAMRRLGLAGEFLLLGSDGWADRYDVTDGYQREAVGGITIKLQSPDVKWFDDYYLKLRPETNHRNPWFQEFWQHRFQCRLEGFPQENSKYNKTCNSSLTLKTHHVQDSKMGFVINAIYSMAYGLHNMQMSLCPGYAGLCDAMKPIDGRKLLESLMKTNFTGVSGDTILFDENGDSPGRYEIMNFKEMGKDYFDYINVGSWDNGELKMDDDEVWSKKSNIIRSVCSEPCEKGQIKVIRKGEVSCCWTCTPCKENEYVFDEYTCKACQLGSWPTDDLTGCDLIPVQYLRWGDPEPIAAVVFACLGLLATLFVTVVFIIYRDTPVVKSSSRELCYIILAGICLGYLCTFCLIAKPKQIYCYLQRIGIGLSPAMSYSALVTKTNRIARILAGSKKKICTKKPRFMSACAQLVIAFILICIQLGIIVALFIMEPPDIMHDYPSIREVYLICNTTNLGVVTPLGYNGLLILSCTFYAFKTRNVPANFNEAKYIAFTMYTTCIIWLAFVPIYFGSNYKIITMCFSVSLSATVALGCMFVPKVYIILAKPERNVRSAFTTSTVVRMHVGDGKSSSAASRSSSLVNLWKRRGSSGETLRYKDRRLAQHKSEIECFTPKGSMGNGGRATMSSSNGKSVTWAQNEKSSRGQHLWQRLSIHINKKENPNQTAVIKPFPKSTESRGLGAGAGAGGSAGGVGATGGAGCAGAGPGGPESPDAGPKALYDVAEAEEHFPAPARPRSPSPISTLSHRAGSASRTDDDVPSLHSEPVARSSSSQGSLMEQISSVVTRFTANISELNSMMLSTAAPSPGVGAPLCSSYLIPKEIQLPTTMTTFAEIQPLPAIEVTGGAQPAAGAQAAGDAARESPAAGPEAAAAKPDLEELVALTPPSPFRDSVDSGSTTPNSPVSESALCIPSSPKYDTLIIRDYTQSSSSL

Liver microsomes [3] = experiment: Intrinsic clearance in rat liver microsomes; type: ADME, Microsome
[4] = Plasma protein binding in human; type: ADME, cell-free; settings: read-out: PPB (converted)
[5] = target: T1, Metabotropic glutamate receptor 5; experiment: Negative allosteric modulation of human mGlu5 receptor expressed in HEK293 cells assessed as inhibition of L-glutamate-induced activity after 1 hr by FLIPR assay; type: cell-based
Target sequence in this assay (P41594 whole entry): as the sequence (P41594 whole entry) above

Liver microsomes [6] = experiment: Metabolic stability in human liver microsomes assessed as GSH adduct formation after 60 mins by LC-MS/MS analysis; type: ADME, Microsome; settings: 1 h
Liver microsomes [7] = experiment: Intrinsic clearance in human liver microsomes; type: ADME, Microsome; set-up: unit not given here
[8] = Plasma protein binding in rat; type: ADME, cell-free; settings: read-out: PPB (converted)
[9] = target: T1, Metabotropic glutamate receptor 5; experiment: Negative allosteric modulation of human mGlu5 receptor expressed in HEK293 cells assessed as inhibition of L-glutamate-induced activity after 1 hr by FLIPR assay relative to control; type: cell-based; set-up: concentration or dose not given beside the values; settings: concentration not given here
Target sequence in this assay (P41594 21-1212 limits assumed): as the sequence (P41594 21-1212 limits assumed) above

[10] = target: T1, Metabotropic glutamate receptor 5; experiment: Positive allosteric modulation of mGlu5 receptor (unknown origin) relative to control
Target sequence in this assay (P41594 21-1212 limits assumed): as above

[11] = target: T1, Metabotropic glutamate receptor 5; experiment: Positive allosteric modulation of mGlu5 receptor (unknown origin)
Target sequence in this assay (P41594 whole entry): as the sequence (P41594 whole entry) above

| Compound | EC50 [1] [µM] | inhibition at 5 µM (CYP2D6) [%] | inhibition at 5 µM (CYP3A4) [%] | Emax [2] [%] | CLH (Liver microsomes [3]) [mL/min] | fraction unbound [4] | IC50 [5] [µM] | Stability (Liver microsomes [6]) | CLH (Liver microsomes [7]) | fraction unbound [8] | inhibition [9] [%] | Emax [10] [%] | EC50 [11] [µM] |
| --- | --- | --- | --- | --- | --- | --- | --- | --- | --- | --- | --- | --- | --- |
| CN1CCc2nc(C#Cc3ccccc3)sc2C1 | 0.034 | < 40 | < 40 | 110 | 88 | 0.035 | > 10 | Stable | 4.9 | 0.061 |  |  |  |
| O=C(C1CC(F)(F)C1)N1CCc2nc(C#Cc3ccccc3)sc2C1 | 0.018 | < 40 | < 40 | 89 | 7.6 | 0.011 | > 10 | Stable | 1.1 | 0.012 | 52 |  |  |
| O=C(N1CCCC1)N1CCc2nc(C#Cc3ccccc3)sc2C1 | 0.0098 | < 40 | < 40 | 180 | 49 | 0.024 | > 10 |  | 1 | 0.047 |  |  |  |
| CN1CCc2nc(C#Cc3ccccc3)sc2C1=O | 0.0024 | < 40 | < 40 | 180 | 52 | 0.033 | > 10 | Unstable | 3.1 | 0.049 |  |  |  |
| O=C(c1cnc(C#Cc2ccccc2)s1)N1CCCCC1 |  |  |  |  |  |  |  | Unstable |  |  |  | 167 | 0.0061 |
| CCN1CCc2nc(C#Cc3cccc(F)c3)sc2C1 | > 10 |  |  | -2 |  |  | 0.072 |  |  |  | 87 |  |  |
| O=C(C1CC(F)C1)N1CCc2nc(C#Cc3ccccc3)sc2C1 (centres undefined) | 0.085 |  |  | 61 |  |  | > 10 |  |  |  | 38 |  |  |
| CCN1CCc2nc(C#Cc3ccccc3)sc2C1 | > 10 |  |  | -6 |  |  | 1.2 |  |  |  | 51 |  |  |
| O=C(N1CCc2nc(C#Cc3ccccc3)sc2C1)N1CCC(F)(F)C1 | 0.053 |  |  | 170 |  |  | > 10 |  |  |  | 26 |  |  |
